# Results published in publication PMC5995255, “CD44 positive and sorafenib insensitive hepatocellular carcinomas respond to the ATP-competitive mTOR inhibitor INK128” (Oncotarget, 2018).
# Assays:
# [1] = test system: SK-Hep1 subcutaneous xenografts; test: SK-Hep1 xenograft efficacy study; format: in vivo, athymic nude mice
# Method: Immunodeficient athymic nude male mice (8 weeks) were obtained from Charles River laboratories and kept in the University's animal housing facility. SK-Hep1 cells were prepared from a low-passage, logarithmically growing population of cells. SK-Hep1 (3 × 10^6 cells) were suspended in 150 ul of Matrigel (Corning, NY, USA) and injected subcutaneously into the right flank of the mice. Three weeks after implantation, tumor sizes were measured using a Fisherbrand™ Traceable™ Digital Caliper (Thermo), the animals were randomized based on tumor size, and treatment was initiated. Tumor size measurements were taken twice a week throughout the treatment period.
# Athymic nude mice bearing SK-Hep1 tumors were randomized into four groups (n = 10 per group); vehicle, sorafenib, INK128 and combination. Sorafenib (10 mg/kg) was prepared as a 4× stock solution in cremophor EL:ethanol (50:50), and diluted using water on the day of the treatment. Vehicle and sorafenib groups received their respective treatments every day via oral gavage. INK128 (3 mg/kg) was prepared in 10% DMSO and dosed via oral gavage every other day. The combination group received a daily dose of sorafenib (10 mg/kg) along with INK128 (3 mg/kg) every other day. Mice were monitored every day, and body weight and tumor size measurements were recorded twice a week throughout the treatment period. Tumor volume was calculated using the equation V= ½ × L × W^2. Treatment was continued for 24 days after which the animals were euthanized. Tumor growth is represented as percentage change from baseline tumor volume.
# [2] = INK128 plasma pharmacokinetic study; format: in vivo, ICR mice
# Method: All animal experiments were carried out under protocols approved by the Institutional Laboratory Animal Care and Use Committee at the Ohio State University. Imprinting control region (ICR) female mice (6 weeks) were obtained from Charles Rivers (Wilmington, MA, USA). Mice were acclimated in the animal housing facility for one week before the start of the study. After overnight fasting, INK128 (3 mg/kg) was administered by oral gavage (PO) in 10% DMSO. At different time points, mice were euthanized by carbon dioxide asphyxiation, and blood was immediately collected by cardiac puncture into lithium heparinized tubes (BD Microtainer, Becton, Dickson and Company, NJ, USA). Blood samples were centrifuged at 6000 × g for 5 min at 4°C. Plasma was collected and kept on dry ice before being stored at −80°C until analysis.
# Plasma samples were thawed on ice. Blank mouse plasma was used for standard curves. Plasma aliquots (100 ul) were spiked with hesperetin (10 ul, 5000 ng/ml) as an internal standard and mixed by vortexing. Drugs were extracted with simple protein precipitation using cold acetonitrile, and the mixture was centrifuged at 13000 × g for 10 min. The supernatant was collected and dried under nitrogen. Dried samples were reconstituted with 200 ul 1% formic acid. Samples were analyzed using liquid chromatography–tandem mass spectrometry (LC-MS/MS) system consisting of Thermo Accela UHPLC pump, Thermo PAL autosampler, and Thermo TSQ Discovery triple quadruple mass spectrometer (Thermo, Waltham, MA, USA). Chromatographic separation was done using an Agilent Zobrax Extend C-18 column. Linear gradient elution was used at a flow rate of 400 ul/min, with a mobile phase of […] and 95% acetonitrile, modified with 0.2% formic acid. Non-compartmental analysis of the pharmacokinetic parameters as well as compartmental model fitting of the data was carried using Phoenix® 7.0 (Certara, New Jersey, USA).
# phosphorylation of S6K = test: Immunoblotting of phosphorylated S6K; format: cell-based, human; details: CD44high cells; 48 h
# Method: (§1) Cell protein lysates (20–30 μg) were separated on NuPAGE 4–12% Bis-Tris gels (Novex) electrophoretically and transferred to polyvinylidene difluoride membranes (Roche). Membranes were blocked for 1 h with 5% Bovine Serum Albumin in Tris-buffered saline containing 0.05% Tween 20 and incubated overnight with primary antibody. The following primary antibodies were used: anti-CD44 (Cell signaling, #3578), anti-vimentin (Abcam, ab92547), anti-total S6K (Cell signaling, # 2708), anti-phosphorylated S6K (Cell signaling, #9234), anti-total 4EBP-1 (Cell signaling, #9644), anti-phosphorylated 4EBP-1(Cell signaling, #2855) and anti-PARP (Cell signaling # 9532) Anti-GAPDH (Santa Cruz Biotechnology, sc-32233) and anti-β actin (Cell Signaling, 4970S) antibodies were used as loading controls. A secondary anti-rabbit (Cell Signaling) or anti-mouse immunoglobulin G (IgG) antibody peroxidase conjugate (GE Healthcare) was detected using ECL Western Blotting Analysis System (Amersham Biosciences).
# phosphorylation of 4EBP1 = test: Immunoblotting of phosphorylated 4EBP1; format: cell-based, human; details: CD44high cells; 48 h
# Method: as §1
# [3] = test system: CD44high HCC cells (SNU423, SNU449, SK-Hep-1); test: Cell proliferation, WST-1 assay, CD44high HCC cells; format: cell-based, human
# [4] = test system: CD44 or vimentin mRNA in SNU423 cells; test: qRT-PCR of CD44 and vimentin mRNA; format: cell-based, human; details: 500 nM; 48 h
# Method: Total RNA was isolated from ATP-competitive mTOR inhibitor treated cells using miRNeasy® Mini kit (Qiagen). cDNA was synthesized according to the manufacturer's protocol (Invitrogen). Five hundred ng of total RNA was used to synthesize cDNA using random primers. cDNA was analyzed for gene expression using gene specific primers (IDT) and the Express SYBR® GreenER qPCR super mix (Invitrogen). Data were normalized to 18S rRNA and the relative expression of genes was presented using the comparative CT method. The following primers were used; CD44: 5′-TGCAGTT […]-3′ (forward) and 5′-[…]-3′ (reverse), Vimentin: 5′-CAGC […]-3′ (forward) and 5′-ATCCT […]-3′ (reverse), 18S: 5′-GT […]-3′(forward) and 5′-CCAT […]-3′(reverse)
# [5] = test system: CD44 and vimentin protein expression in SNU423 cells; test: Immunoblotting of CD44 and vimentin protein; format: cell-based, human; details: 48 h; SNU423 (rapalogs also SNU449)
# Method: as §1
# [6] = test system: sorafenib resistant Huh7 cells; test: Cell proliferation, WST-1 assay, sorafenib resistant Huh7; format: cell-based, human; details: 72 h
# Method: A sorafenib-resistant Huh7 cell line was established by long term exposure to incremental concentrations of sorafenib (LC Laboratories, USA) as reported. Following six months of culture in 10 cm cell culture dishes, resistant cells were diluted out in 96 well plates and single cell clones were selected and scaled up to be used in further experiments.
# SNU423 cells = test: Wound healing (in vitro migration) assay; format: cell-based, human; details: 500 nM; 30 h migration
# Method: SNU423 cells were treated with either INK128 or everolimus at 500 nM or vehicle control (1% DMSO). At 24 h after treatment or transfection, 70 μl of the treated cells (3 × 10^5 cells/mL) was placed into each well of ibidi culture-insert (ibidi, LLC). After an overnight incubation, the culture insert was removed to create a cell-free gap in a monolayer of the cells. The gap closure area was photographed and analyzed by Tscratch software. Wound healing assay was further performed using Huh7 and PLC/PRF/5 cells to determine the effects of CD44 overexpression of migration. The percentage of the gap closure area based on the initial point at time zero was calculated from at least two independent experiments.
# [7] = test system: Huh7CD44, PLC/PRF/5CD44, Huh7EV and PLC/PRF/5EV cells; test: Cell proliferation, WST-1 assay, CD44 overexpressing versus empty vector cells; format: cell-based, human; details: 72 h
# Method: An optimized DNA fragment for CD44 overexpression was designed and ordered from Invitrogen using GeneArt® Gene Synthesis. The optimized DNA fragment was cloned using GeneArt® Seamless Cloning technology into a p-EGFP-C1 vector graciously obtained from Matthew Wood's Lab. Huh7 and PLC/PRF/5 cells (CD44low) were transfected with 1500 ng of either CD44 vector or empty vector using Lipofectamine 3000 (Invitrogen). Forty-eight h after transfection, cells were selected using 150 μg/ml hygromycin (Life Technologies). Western blotting was used to confirm successful transfection and expression of CD44.
# [8] = test system: HCC cell lines (SNU423, SNU449 and Huh7); test: Cell proliferation, WST-1 assay, three HCC cell lines; format: cell-based, human; details: 48 h
# [9] = 3 mg/kg oral gavage, single dose, plasma
# [10] = female, ICR, mouse, plasma, po, 3 mg/kg, 3 mg/kg oral gavage, single dose
# [11] = female, ICR, mouse, 3 mg/kg oral gavage, single dose, plasma
structure (smiles),measurement,setting,value
CC(C)n1nc(-c2ccc3oc(N)nc3c2)c2c(N)ncnc21 [INK128],reduction of tumor burden compared to vehicle control or sorafenib alone,[1]; 3 mg/kg every other day oral,up to 30%
same,reduction in tumor volume (from baseline),"[1]; INK128 3 mg/kg every other day oral, alone or with sorafenib 10 mg/kg daily, 24 days",24%
same,time with drug concentrations greater than 100 nM,[2]; 3 mg/kg oral gavage,approximately 16 h
same,CL,[2]; [9],0.000582 L/min
same,Cmax,[2]; [9],2030 nM
same,tolerability,"[2]; 3 mg/kg oral, all animals of the pharmacokinetic study",well tolerated
same,Cmax,[2]; [10],2030 nM
same,Tmax,[2]; [10],≤ 0.25 h
same,concentration at 24 h,"[2]; female, ICR, mouse, plasma, 3 mg/kg oral gavage, 24 h, read-out: plasma concentration 24 h post dose",24.6 nM
same,AUC(0-t),[2]; [11],7.38 µM·h
same,half-life,[2]; [11],1.81 h
same,phosphorylation of S6K,phosphorylation of S6K,inhibited
same,phosphorylation of 4EBP1,phosphorylation of 4EBP1,inhibited
same,reduction of proliferation in CD44high compared to CD44low cells,"[3]; 72 h, CD44low: Huh7, PLC/PRF/5, HepG2",more effective
same,inhibition at 0.1 µM,"[3]; Homo sapiens, 100 nM, CD44high cells (Figure 1C), read-out: inhibition in cellular proliferation",60%
same,anti-proliferative activity versus allosteric mTOR inhibitors,"[3]; SNU423 and SNU449 cells, 48 h",better anti-proliferative activity than rapamycin and everolimus
same,CD44 or vimentin mRNA,[4],no change
same,CD44 and vimentin protein expression,[5],great reduction
same,anti-proliferative effects versus wildtype CD44low Huh7 cells,[6],greater anti-proliferative effects
same,decrease of cell movement compared to vehicle control,SNU423 cells,50%
same,anti-proliferative response of CD44 expressing cells versus empty vector cells,[7]; 500 nM,responded better
CO[C@H]1C[C@@H]2CC[C@@H](C)[C@@](O)(O2)C(=O)C(=O)N2CCCC[C@H]2C(=O)O[C@H]([C@H](C)C[C@@H]2CC[C@@H](OCCO)[C@H](OC)C2)CC(=O)[C@H](C)/C=C(\C)[C@@H](O)[C@@H](OC)C(=O)[C@H](C)C[C@H](C)/C=C/C=C/C=C/1C [everolimus],phosphorylation of S6K,phosphorylation of S6K,blocked
same,phosphorylation of 4EBP1,phosphorylation of 4EBP1,did not inhibit
same,CD44 and vimentin protein expression,[5],did not alter
same,proliferation (lowest level reached),[8]; even at 5000 nM,≥ 40%
same,decrease of cell movement compared to vehicle control,SNU423 cells,20%
CO[C@H]1C[C@@H]2CC[C@@H](C)[C@@](O)(O2)C(=O)C(=O)N2CCCC[C@H]2C(=O)O[C@H]([C@H](C)C[C@@H]2CC[C@@H](O)[C@H](OC)C2)CC(=O)[C@H](C)/C=C(\C)[C@@H](O)[C@@H](OC)C(=O)[C@H](C)C[C@H](C)/C=C/C=C/C=C/1C [rapamycin],phosphorylation of S6K,phosphorylation of S6K,blocked
same,phosphorylation of 4EBP1,phosphorylation of 4EBP1,did not inhibit
same,CD44 and vimentin protein expression,[5],did not alter
same,proliferation (lowest level reached),[8],≥ 40%
CNC(=O)c1cc(Oc2ccc(NC(=O)Nc3ccc(Cl)c(C(F)(F)F)c3)cc2)ccn1 [sorafenib],tumor size increase compared to baseline,"[1]; 10 mg/kg daily oral gavage, 24 days",46%
same,inhibition in tumor growth compared to vehicle control,"[1]; 10 mg/kg daily oral, not significant",approximately 15%
same,ability to reduce proliferation as a function of CD44 protein,[7],no difference
